This note sets out measurements from patent publication US20120003339A1, “COMPOSITIONS AND METHODS FOR CONTROLLING BLOOD GLUCOSE LEVELS” (priority 2010, published 2012).

What all share (format): in vivo, human
Data set [1] is described as follows: Example I: blood glucose levels and side effects in a subject with type 2 diabetes. Conditions: person, blood glucose 17 to 19 mmol/L at diagnosis, first prescribed drug.
Data set [2] is described as follows: Example II: morning (fasting) and two-hour after eating blood glucose readings, A1c and side effects in a subject with type 2 diabetes. Particulars: 500 mg once a day. The procedure:
A subject had been diagnosed with type 2 diabetes. Their fasting glucose reading was 11.6 mmol/L and A1c was 8.9%. Due to arthritis in their knee, exercise was not an option. […] They were prescribed 500 mg of Ratio-Metformin once a day. […] According to the endocrinologist, the subject's morning readings (fasting blood glucose levels) were in the range from 8.1 to 10.8 mmol/L, and their two-hour after eating readings were 10 to 13.8 mmol/L.
Due to the adverse side effects of Metformin, the subject decided to stop taking the prescribed daily Metformin and replace it with the composition and method of the present invention. […]
The first cycle was about three months in length. […] Within a week that the subject was treated with the method of the invention, their morning readings were in the 4 to 6.5 mmol/L range and their two hours after eating range were well below 9 mmol/L. It should be noted that, for three weeks during this period, the patient was on vacation in France, enjoying fine French food and wine. A month after finishing the first cycle, the subject took a second fasting sugar test and a A1c test, the readings were 6.6 mmol/L and 6%, respectively.
The subject was treated with three cycles of the composition and method of the present invention. […] Their morning readings were in the range of 4.3 to 6.5 mmol/L, and their two hour after eating readings were in the range of 6 to 8.5 mmol/L. […]

Data set [3] in a line: Example III: blood glucose levels in a morbidly obese subject with type 2 diabetes. Particulars: person, 380 lb, on traditional medication. On the procedure:
A subject weighed 380 lb was diagnosed with type 2 diabetes and was considered morbidly obese. The subject was prescribed Metformin. With traditional medication their blood glucose levels were at about 19 mmol/L, well above the normal range. Although the subject was considered for gastric bypass surgery, their medical doctors would not operate because their blood glucose could not be controlled.
The subject started taking 25 mg each of Gudmar, Kalijiri, Kariyatu, and Neempan tablets three times a day. Two weeks after the subject started the taking the herbal composition of the invention, the subject's blood glucose levels had dropped to 5.5 mmol/L, within the normal range. As a result, the subject was able to proceed with the surgery.

On to `CN(CCOc1ccc(CC2SC(=O)NC2=O)cc1)c1ccccn1` (stereo not shown) [Avandia, rosiglitazone], for which the “blood glucose levels (effect in words)” value in data set [1] is recorded as “did not reduce their blood glucose levels to the normal range”.
In the case of `CN(C)C(=N)N=C(N)N` [Metformin], in data set [2], the “side effect (in words)” value is reported as “left them feeling confused, “in a fog.””. Further, the “blood glucose levels (effect in words)” value in data set [2] (fasting glucose 11.6 mmol/L and A1c 8.9% at diagnosis) was “did reduce their blood glucose levels”. Also, the blood glucose levels entry in data set [3] is “about 19 mmol/L”.
